{"source": "paper PMC5263201", "about": "“GABAA receptor occupancy by subtype selective GABAAα2,3 modulators: PET studies in humans” (Psychopharmacology, 2016)", "key": {"[1]": {"test_system": "GABAA receptors (benzodiazepine binding site)", "test": "PET with [11C]flumazenil (HRRT): GABAA receptor occupancy", "type": "in vivo, human", "details": "for Occupancy (%) OC: occipital cortex; for Occupancy (%) OC / Occupancy (%) AMG / Occupancy (%) CER / Occupancy (%) PUT: 1 h after drug administration; for Occupancy (%) AMG: amygdala; for Occupancy (%) CER: cerebellum; for Occupancy (%) PUT: putamen", "protocol": "Two separate open-label phase I PET studies were conducted in 2008–2009.\nThe initial study design included two sequential panels, with two subjects in each. The first panel was intended to obtain initial receptor occupancy values, to be used for dose selection in the second panel. […] The studies followed an adaptive design, i.e., doses and PET measurements were adjusted depending on the results of preceding measurements. […] To optimize quantification of the relationship between AZ6280 exposure and receptor occupancy, the number of subjects with the highest 40 mg dose was increased (Fig. 1).\nThe head of the subject was fixed using individual plaster helmet. A sterile physiological phosphate buffer (pH 7.4) solution containing [^11C]flumazenil was injected intravenously as a bolus during 2 s, immediately followed by flush with 10 ml saline. The injected radioactivity for [^11C]flumazenil was in the range of 330–350 MBq, (340 (9) MBq, mean, SD) in the study 1 and in the range of 317–363 MBq (335 (16) MBq) in the study 2. The specific radioactivity of the radioligand at time of injection ranged from 310 to 1465 GBq/μmol (730 (414) GBq/μmol, mean, SD) and from 464 to 1879 GBq/μmol (977 (424) GBq/μmol, mean, SD), for study 1 and study 2, respectively.\nPET examinations were performed over 63 min (HRRT; Siemens/CTI). List mode data were reconstructed using the ordinary Poisson 3D ordered subset estimation maximization algorithm, with 10 iterations and 16 subsets including modeling of the point spread function (Varrone et al. [2009]) into a 4D PET image containing 33 consecutive time frames (9 × 10 s, 2 × 15 s, 3 × 20 s, 4 × 30 s, 4 × 60 s, 4 × 180 s, 7 × 360 s) with a 3D array of 256 × 256 × 207 voxels having a size of 1.22 × 1.22 × 1.22 mm.\nThe anatomical brain regions were delineated manually on the MR images using in-house image analysis software. The regions included cortical and striatal subregions, thalamus, cerebellum, limbic regions, pons, and whole brain. The following four regions were selected in the final analysis: The occipital cortex and cerebellum were chosen because of the highest GABAA receptor binding by [^11C]flumazenil and good imaging statistics and preferential distribution of α1/α2 receptor subtypes; the amygdala was chosen because of its role in the brain circuits involved in anxiety and putamen for preferential α1/α2/α3 versus α5 receptor subtypes (Lingford-Hughes et al. [2002]; Fatemi et al. [2013]; Waldvogel and Faull [2015]). For the pons, the ROI was drawn on horizontal projection on the six central slices. […] The concentration of radioactivity in each ROI, calculated for each sequential time frame and corrected for ^11C decay, was plotted versus time (TACs).\nAn index of neuronal GABAA receptor density or binding potential (BPND) was calculated using the simplified reference tissue model (Lammertsma and Hume [1996]) and pons as a reference region. The calculated receptor occupancy (%) was then correlated to drug exposure according to the following equation:1 Occupancy=Occmax×Cav,PET/Ki,plasma+Cav,PET\nwhere Occmax is the maximal occupancy induced by drug, C av,PET is the total drug plasma concentration, and K i,plasma is the inhibition constant corresponding to the drug plasma concentration required for half-maximum receptor occupancy. Non-linear least squares curve fitting of the relationship between drug plasma concentration and receptor occupancy was performed using Matlab R2007b (http://de.mathworks.com). Regional data were fitted simultaneously to obtain a single estimate of K i,plasma and regionally different estimates of Occmax. Best fit estimate and confidence interval (95% CI) were obtained on the logarithmic scale."}, "[2]": {"test": "Plasma pharmacokinetics after single oral doses in the PET studies", "type": "in vivo, human", "details": "for C av,PET: average plasma concentration at time of PET", "protocol": "Venous blood samples for determination of drug plasma concentrations were collected at approximately 15 min before [^11C]flumazenil injection and at 15 and 30 min and 3, 4, 6, 8, 10, 12, 16, 24, 36, and 48 h after drug administration, including three samples during PET measurement, at 1, 1.30, and 2 h after drug administration.\nCalculations of the pharmacokinetic parameters included the maximum plasma concentration (C max), the time to the maximum plasma concentration (T max), and the average drug plasma concentration during the PET measurement (C av,PET) (division of the partial area corresponding to the start and end times of PET assessment, AUCPET, by the duration of the PET measurement). The pharmacokinetic calculations were performed using non-compartmental analysis using WinNonlin™, Pharsight Corporation."}, "[3]": {"test": "Safety and tolerability in the PET studies", "type": "in vivo, human", "text": "Safety and tolerability assessments included records of adverse events, vital signs (blood pressure, heart rate), Allen’s test, ECG, clinical chemistry, hematology assessments, and urinalysis."}, "human MT1 receptor": {"target": "human MT1 receptor (Homo sapiens, UniProt P48039)", "sequence (P48039 whole entry)": "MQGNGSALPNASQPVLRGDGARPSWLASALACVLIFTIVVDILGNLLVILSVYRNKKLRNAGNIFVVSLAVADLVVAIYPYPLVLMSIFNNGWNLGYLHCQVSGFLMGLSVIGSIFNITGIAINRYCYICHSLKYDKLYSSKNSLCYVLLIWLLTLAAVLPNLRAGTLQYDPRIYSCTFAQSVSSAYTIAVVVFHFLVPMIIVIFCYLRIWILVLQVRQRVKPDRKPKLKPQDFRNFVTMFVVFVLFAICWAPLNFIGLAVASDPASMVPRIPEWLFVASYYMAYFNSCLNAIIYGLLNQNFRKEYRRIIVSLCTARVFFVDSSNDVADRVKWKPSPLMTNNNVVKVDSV", "test": "MT1 receptor GTPγS studies", "type": "biochemical"}, "[4]": {"test_system": "approximately 160 different ligand binding assays", "test": "Battery of approximately 160 different ligand binding assays at 10 μM", "details": "active = ≥50% inhibition with an IC50 <1µM"}, "[5]": {"test": "Brain exposure in animals", "type": "in vivo"}, "[6]": {"details": "cited from earlier work"}, "[7]": {"set-up": "method as in Chen et al. 2014, 2015", "details": "neurophysiological test battery; ref Chen et al. 2014, 2015; cited from earlier work"}, "[8]": {"details": "AZD6280 5 to 40 mg single oral doses"}}, "note": "Several values for one entry are separate records, joined by “and”; a condition that tells them apart may be missing. Identical values can stand only once. Like-named read-outs stand apart in the source and are kept apart here.", "data": [{"smiles": "CCCNC(=O)c1nnc2c(-c3cc(OC)ccc3OC)cccc2c1N", "note": "[AZD6280]", "values": [{"measurement": "receptor occupancy at the maximum tolerated dose", "setting": "[1]; 40 mg AZD6280, cortex and cerebellum", "value": "over 60%"}, {"measurement": "Occupancy (%) OC", "setting": "[1]; AZD6280 single oral dose 5 mg", "value": "11% and 7%"}, {"measurement": "Occupancy (%) AMG", "setting": "[1]; AZD6280 single oral dose 12 mg", "value": "−8", "unit": "%"}, {"measurement": "Occupancy (%) CER", "setting": "[1]; AZD6280 single oral dose 12 mg", "value": 25, "unit": "%"}, {"measurement": "Occupancy (%) OC", "setting": "[1]; AZD6280 single oral dose 12 mg", "value": 17, "unit": "%"}, {"measurement": "Occupancy (%) PUT", "setting": "[1]; AZD6280 single oral dose 12 mg", "value": 0, "unit": "%"}, {"measurement": "Occupancy (%) AMG", "setting": "[1]; AZD6280 single oral dose 20 mg", "value": 20, "unit": "%"}, {"measurement": "Occupancy (%) CER", "setting": "[1]; AZD6280 single oral dose 20 mg", "value": 65, "unit": "%"}, {"measurement": "Occupancy (%) OC", "setting": "[1]; AZD6280 single oral dose 20 mg", "value": 60, "unit": "%"}, {"measurement": "Occupancy (%) PUT", "setting": "[1]; AZD6280 single oral dose 20 mg", "value": 32, "unit": "%"}, {"measurement": "Occupancy (%) AMG", "setting": "[1]; AZD6280 single oral dose 30 mg", "value": "9% and 5%"}, {"measurement": "Occupancy (%) CER", "setting": "[1]; AZD6280 single oral dose 30 mg", "value": "50% and 59%"}, {"measurement": "Occupancy (%) OC", "setting": "[1]; AZD6280 single oral dose 30 mg", "value": "39% and 43%"}, {"measurement": "Occupancy (%) PUT", "setting": "[1]; AZD6280 single oral dose 30 mg", "value": "16% and 14%"}, {"measurement": "Occupancy (%) CER", "setting": "[1]; AZD6280 single oral dose 40 mg", "value": "69% and 61% and 62% and 60%"}, {"measurement": "Occupancy (%) OC", "setting": "[1]; AZD6280 single oral dose 40 mg", "value": "50% and 52% and 62% and 53% and 36%"}, {"measurement": "Receptor occupancy (RO)", "setting": "[1]; at 40mg, MTD, present study", "value": "60-70%"}, {"measurement": "Ki", "setting": "[1]; read-out: K i,plasma (plasma concentration required for 50% receptor occupancy), hyperbolic fit of occupancy vs C av,PET, regional data fitted simultaneously", "value": 440, "unit": "nM"}, {"measurement": "T max", "setting": "[2]; AZD6280 single oral dose 5 mg, individual subjects", "value": 108, "unit": "min"}, {"measurement": "Cmax", "setting": "[2]; AZD6280 single oral dose 5 mg, individual subjects, read-out: C max", "value": "179 nM and 77.2 nM"}, {"measurement": "C av,PET", "setting": "[2]; AZD6280 single oral dose 12 mg", "value": 204.68, "unit": "nM"}, {"measurement": "C av,PET", "setting": "[2]; AZD6280 single oral dose 20 mg", "value": 592.22, "unit": "nM"}, {"measurement": "C av,PET", "setting": "[2]; AZD6280 single oral dose 30 mg", "value": "513.07 nM and 676.82 nM"}, {"measurement": "T max", "setting": "[2]; AZD6280 single oral dose 30 mg, individual subjects", "value": 30, "unit": "min"}, {"measurement": "Cmax", "setting": "[2]; AZD6280 single oral dose 30 mg, individual subjects, read-out: C max", "value": 731, "unit": "nM"}, {"measurement": "T max", "setting": "[2]; AZD6280 single oral dose 40 mg, individual subjects", "value": "30 min and 36 min"}, {"measurement": "Cmax", "setting": "[2]; AZD6280 single oral dose 40 mg, individual subjects, read-out: C max", "value": "1250 nM and 1500 nM and 439 nM and 1510 nM"}, {"measurement": "Cmax", "setting": "[2]; human, plasma, oral, range over all doses and subjects, read-out: range for peak exposures, Cmax", "value": "28.3 to 555", "unit": "ng/mL"}, {"measurement": "Tmax", "setting": "[2]; human, plasma, po, 5 mg, AZD6280 single oral dose 5 mg, individual subjects", "value": 60, "unit": "min"}, {"measurement": "Tmax", "setting": "[2]; human, plasma, po, 12 mg, AZD6280 single oral dose 12 mg, individual subject", "value": 54, "unit": "min"}, {"measurement": "Cmax", "setting": "[2]; human, plasma, po, 12 mg, AZD6280 single oral dose 12 mg, individual subject, read-out: C max", "value": 249, "unit": "nM"}, {"measurement": "Tmax", "setting": "[2]; human, plasma, po, 20 mg, AZD6280 single oral dose 20 mg, individual subject", "value": 96, "unit": "min"}, {"measurement": "Cmax", "setting": "[2]; human, plasma, po, 20 mg, AZD6280 single oral dose 20 mg, individual subject, read-out: C max", "value": 677, "unit": "nM"}, {"measurement": "Cmax", "setting": "[2]; human, plasma, po, 30 mg, AZD6280 single oral dose 30 mg, individual subjects, read-out: C max", "value": 729, "unit": "nM"}, {"measurement": "most common AEs: dizziness", "setting": "[3]; [8]", "value": "four of eight subjects"}, {"measurement": "most common AEs: feeling drunk", "setting": "[3]; [8]", "value": "two out of eight subjects"}, {"measurement": "receptor occupancy at the doses/exposure at which adverse events were reported", "setting": "[3]; AZD7325 5, 20 and 30 mg, AZD6280 20 mg and above", "value": "> 60", "unit": "%"}, {"measurement": "high receptor occupancy reached without obvious sedative effects", "setting": "[3]; PET studies", "value": "> 60", "unit": "%"}, {"measurement": "doses at which AEs were reported", "setting": "[3]; not at 5 and 12 mg dose", "value": "≥ 20", "unit": "mg"}, {"measurement": "EC50", "setting": "human MT1 receptor", "value": 19, "unit": "nM"}, {"measurement": "Emax", "setting": "human MT1 receptor", "value": 90, "unit": "%"}, {"measurement": "activity in the battery of ligand binding assays", "setting": "[4]", "value": "only assays in which either compound was active were the melatonin Type 1 and Type 2 receptors"}, {"measurement": "brain exposure", "setting": "[5]", "value": "good brain exposure"}, {"measurement": "sedation scores in VAS alertness scale compared to placebo", "setting": "[6]; 1 h post-dose, dose ≥20 mg, ref AZ data on file", "value": "numerically higher sedation scores"}, {"measurement": "correct answers on DSST", "setting": "[6]; 2 h after administration, dose ≥20 mg, ref AZ data on file", "value": "lower mean correct answers"}, {"measurement": "relationship between dose and alertness or cognitive performance", "setting": "[6]; VAS alertness-sedation, Modified Wilson Sedation Scale, DSST, ref NCT00681317 and NCT00681915", "value": "no significant relationship"}, {"measurement": "receptor occupancy up to which no cognitive or hypnotic side effects were observed", "setting": "[7]", "value": "up to 60%"}]}]}
